In ChEMBL document CHEMBL1128423, “Synthesis and evaluation of 6,11-ethanohexahydrobenzo[b]quinolizidines: a new class of noncompetitive N-methyl-D-aspartate antagonists” (J Med Chem, 1995):
pKi: −log10 of the molar value.

These molecules were tested against Glutamate NMDA receptor (assay: Displacement of [3H]TCP from NMDA receptor of rat brain membranes).
Assay type: cell membranes, Membrane

Row | Compound | pKi
1 | c1ccc2c(c1)C1C3CCCCC3C2N2CCCCC12 (configuration not stated) | 6.87
2 | Oc1ccc2c(c1)C1C3CCCC3C2C2CCCCN21 (configuration not stated) | 7.64
3 | Oc1cccc2c1C1C3CCCC3C2N2CCCCC12 (configuration not stated) | 8.64
4 | c1ccc2c(c1)C1C3CCCC3C2N2CCCCC12 (configuration not stated) | 7.82
5 | CC12c3ccccc3C(C3CCCC31)N1CCCCC12 (configuration not stated) | 7.34
6 | c1ccc2c(c1)C1CCC2N2CCCCC12 (configuration not stated) | 6.62
7 | c1ccc2c(c1)CC1CCCCN1C2 (configuration not stated) | 5.00

Other lines, results leading:

Row | pKi | Compound
8 | 7.92 | Nc1ccc2c(c1)C1C3CCCC3C2N2CCCCC12 (configuration not stated)
9 | 8.64 | Oc1ccc2c(c1)C1C3CCCC3C2N2CCCCC12 (configuration not stated)
10 | 6.22 | c1ccc2c(c1)C1C3OCCC3C2N2CCCCC12 (configuration not stated)
11 | 7.39 | Brc1ccc2c(c1)C1C3CCCC3C2N2CCCCC12 (configuration not stated)
12 | 7.70 | Fc1ccc2c(c1)C1C3CCCC3C2N2CCCCC12 (configuration not stated)
